Consider 7 compounds from article PMC12655351, “Synthesis and Anticancer Activity Evaluation of New 5-((5-Nitrofuran-2-yl)allylidene)-2-thioxo-4-thiazolidinones” (Pharmaceuticals, 2025).

What all share (type): cell-based
One test relates to HCT-116. The test is described as follows: MTT assay. The settings on record: Homo sapiens; HCT-116, 24 h of treatment. How it is done:
(§1) The NCI-60 screening protocol utilizes the sulforhodamine B (SRB) assay following 48 h of compound exposure. […] The MTT assay was performed on eleven cancer cell lines: human breast cancer (MDA-MB-231, MCF-7, HCC 1954), human gastric cancer (AGS), human colorectal adenocarcinoma (HT-29, DLD-1, HCT 116), human neuroblastoma (SH SY5Y), and human leukemia (JURKAT, RMPI 8866, K-562) cell lines. The study was conducted in triplicate at the following seven concentrations: 0.62, 1.25, 2.5, 5, 10, 20, and 40 μM.
(§2) The selected cell lines were seeded into 96-well plates and cultured in accordance with the previously described methodology. Then, the cells were treated with all tested compounds and DOX at concentrations of 0.625, 1.25, 2.5, 5.0, 10.0, 20.0, and 40.0 μM for 24 h. A solution of 3-(4,5-dimethyl-2-thiazolyl)-2,5-diphenyl-2H-tetrazolium bromide (Sigma-Aldrich, St. Louis, MO, USA) in phosphate-buffered saline without calcium and magnesium (Corning, Kennebunk, ME, USA) at a concentration of 5 mg/mL was used to carry out MTT assay. After incubation, 20 μL of the prepared MTT solution was added, and then the cells were incubated at 37 °C for two hours. Afterwards, the cells were lysed using 100 μL of lysing buffer (comprising 25 mM HCl, 2% acetic acid, 3% DMF, and 5% SDS, with a pH of 4.7). The absorbance was determined at a wavelength of 570 nm using an Absorbance 96 microplate reader (Byonoy GmbH, Hamburg, Germany).
(In general: Tetrazolium assays rely on reduction of a dye to a coloured formazan, in cell work by metabolically active cells.)

For the next test, the system named is DLD-1. Kind of test: MTT assay. The settings on record: Homo sapiens; DLD-1, 24 h of treatment. How it is done:
as §1, §2

The subject of another test is RPMI 8866. The test is described as follows: MTT assay. As to conditions: Homo sapiens; RPMI 8866, 24 h of treatment. How it is done: as §1, §2
A further test relates to HCC-1954. The test is described as follows: MTT assay. As to conditions: Homo sapiens, HCC1954; HCC-1954, 24 h of treatment. How it is done:
as §1, §2

The next test deals with Jurkat. Kind of test: MTT assay. As to conditions: Homo sapiens, 24 h of treatment. As to the method: as §1, §2
Another test concerns K562. The test is described as follows: MTT assay. The settings on record: Homo sapiens; K562, 24 h of treatment. How it is done: as §1, §2
Another test concerns HT-29. The test is described as follows: MTT assay. The settings on record: Homo sapiens; HT-29, 24 h of treatment. How it is done:
as §1, §2

The test system of test [1] is MDA-MB-231. The test is described as follows: MTT assay. As to conditions: Homo sapiens; MDA-MB-231, 24 h of treatment. How it is done:
as §1, §2

The subject of a further test is AGS. Kind of test: MTT assay. As to conditions: Homo sapiens, 24 h of treatment. As to the method: as §1, §2
In the next test the test system is SH SY5Y. Kind of test: MTT assay. The settings on record: Homo sapiens, 24 h of treatment. How it is done:
as §1, §2

Test [2] has as its system MCF-7. Kind of test: MTT assay. As to conditions: Homo sapiens, MCF7; MCF-7, 24 h of treatment. How it is done: as §1, §2
For test [3], the system named is MDA-MB-231. Kind of test: [3H]-thymidine incorporation assay. As to conditions: Homo sapiens; MDA-MB-231, 24 h of treatment. How it is done: (§3) Another method of assessing the cytotoxic effects of tested compounds, [^3H]-thymidine incorporation assay, was applied. This method provided the capability to analyze the antiproliferative activity of novel structures on MCF-7 and MDA-MB-231 through their ability to incorporate thymidine into the cells. The acquired results further confirmed the potent activity of the 14b compound as the most prominent structure among the novel compounds (Table 2). The test was carried out in triplicate at concentrations of 5, 15, and 30 μM for the MDA-MB-231 cell line and 1, 5, and 10 μM for the MCF-7 cell line.
(§4) Following the selection of cell lines for further study, the effects of all compounds on cell proliferation were evaluated on MCF-7 and MDA-MB-231 cell lines. Cells were seeded in 24-well plates and cultured as described above. Cells were treated with the compounds at concentrations 1, 5, and 10 μM, and 5, 15, and 30 μM for MCF-7 and MDA-MB-231 cell lines, respectively, for 24 h. Subsequently, 0.5 μCi [^3H]-thymidine was added for 4 h at 37 °C. Then, plates with cells were placed on the ice, the liquid was aspirated, and cells were washed twice with 1mL of 0.05 M Tris-HCl buffer comprising 0.11 M NaCl and precipitated by adding 1 mL per well of 5% trichloroacetic. After precipitation, the cells were dissolved with 1 mL of 0.1 M NaOH with 1% SDS (Sigma-Aldrich, St. Louis, MO, USA) at room temperature (RT). The cell lysates were transferred into scintillation vials containing 2 mL of scintillation fluid (Ultima Gold™ XR, PerkinElmer, MA, USA), and cell-associated radioactivity was measured using a Scintillation Counter 1900 TR, TRI-CARB (Packard, Perkin Elmer, Inc., San Jose, CA, USA). The [^3H]-thymidine uptake was expressed as a percentage of the control value.

In test [4] the test system is MCF-7. The test is described as follows: [3H]-thymidine incorporation assay. The settings on record: Homo sapiens, MCF7; MCF-7, 24 h of treatment. How it is done: as §3, §4
(Uptake of a labelled nucleoside into DNA is a usual measure of proliferation.)

For orientation: IC50 means the concentration that inhibits the measured activity by half. A lower IC50 goes with inhibition by little substance. Turning to `O=C(O)C(Cc1ccccc1)N1C(=O)/C(=C/C=C/c2ccc([N+](=O)[O-])o2)SC1=S` (stereo not shown) [10b, 2-((Z)-5-((E)-3-(5-Nitrofuran-2-yl)allylidene)-4-oxo-2-thioxothiazolidin-3-yl)-3-phenylpropanoic acid], the IC50 in the test with HCT-116 was found to be 13.5 µM; with DLD-1 it was 9.29 µM; with RPMI 8866, 16.5 µM; in the test on HCC-1954, 19.1 µM; in the test on Jurkat it was 6.7 µM; with K562 it was 25.5 µM. Further, the IC50 with HT-29 was determined as 28.6 µM; in the test with MDA-MB-231 [1] it was 22.9 µM; in the test with AGS, 8.57 µM; in the test on SH SY5Y, 18.9 µM; in the test on MCF-7 [2] it was 9.23 µM; with MDA-MB-231 [3] it was 5.99 µM. The compound also returned a 50% inhibitory concentration (IC50) with MCF-7 [4] of 7.87 µM.

On to `CCC(C(=O)O)N1C(=O)/C(=C/C=C/c2ccc([N+](=O)[O-])o2)SC1=S` (stereo not shown) [3b, 2-((Z)-5-((E)-3-(5-Nitrofuran-2-yl)allylidene)-4-oxo-2-thioxothiazolidin-3-yl)butanoic acid], for which the IC50 in the test on HCT-116 amounted to 14.7 µM; in the test with DLD-1 it was 8.03 µM; in the test on RPMI 8866 it was 35.2 µM; with HCC-1954, 17.6 µM; in the test with Jurkat, 14.2 µM; with K562, 25.8 µM. In addition, the IC50 in the test with HT-29 stood at 30.4 µM; in the test on MDA-MB-231 [1] it was 18.5 µM; in the test on AGS, 6.53 µM; in the test on SH SY5Y, 28.5 µM; with MCF-7 [2], 7.74 µM; in the test with MDA-MB-231 [3], 2.65 µM. The compound further registered an IC50 in the test with MCF-7 [4] of 7.79 µM.

For the compound `O=C(O)C(Cc1ccc(O)cc1)N1C(=O)/C(=C/C=C/c2ccc([N+](=O)[O-])o2)SC1=S` (stereo not shown) [11b, 3-(4-Hydroxyphenyl)-2-((Z)-5-((E)-3-(5-nitrofuran-2-yl)allylidene)-4-oxo-2-thioxothiazolidin-3-yl)propanoic acid], the IC50 in the test with HCT-116 is 36.1 µM; with DLD-1, 20.3 µM; in the test with RPMI 8866 it was 27.8 µM; in the test on HCC-1954 it was > 40 µM; in the test on Jurkat it was 17.1 µM; in the test on K562 it was > 40 µM. The concentration for half-maximal inhibition (IC50) is > 40 µM in the test on HT-29; > 40 µM in the test with MDA-MB-231 [1]; 30.6 µM in the test with AGS; > 40 µM in the test on SH SY5Y; 33.1 µM with MCF-7 [2]; > 30 µM in the test with MDA-MB-231 [3]. Moreover, in the test with MCF-7 [4], the concentration for half-maximal inhibition (IC50) was > 10 µM.

For `O=C(O)CCCCCCCCCCN1C(=O)/C(=C/C=C/c2ccc([N+](=O)[O-])o2)SC1=S` [15b, 11-((Z)-5-((E)-3-(5-nitrofuran-2-yl)allylidene)-4-oxo-2-thioxothiazolidin-3-yl)undecanoic acid], the 50% inhibitory concentration (IC50) amounted to 10.5 µM in the test with HCT-116; 1.76 µM in the test on DLD-1; 11 µM in the test with RPMI 8866; 6.23 µM with HCC-1954; 1.41 µM in the test with Jurkat; 15.5 µM in the test with K562. Moreover, the half-inhibitory concentration (IC50) in the test on HT-29 was 9.61 µM; in the test on MDA-MB-231 [1], > 40 µM; in the test with AGS, 1.71 µM; in the test with SH SY5Y it was 3.76 µM; in the test with MCF-7 [2] it was 4.05 µM; in the test on MDA-MB-231 [3], > 30 µM. This compound had an IC50 in the test with MCF-7 [4] of 3.13 µM.

Take `CCC(C)C(C(=O)O)N1C(=O)/C(=C/C=C/c2ccc([N+](=O)[O-])o2)SC1=S` (stereo not shown) [8b, 3-Methyl-2-((Z)-5-((E)-3-(5-nitrofuran-2-yl)allylidene)-4-oxo-2-thioxothiazolidin-3-yl)pentanoic acid]: the half-maximal inhibitory concentration (IC50) was 4.15 µM with HCT-116; 3.68 µM in the test with DLD-1; 14.2 µM in the test on RPMI 8866; 4.9 µM in the test on HCC-1954; 3.19 µM with Jurkat; 7.35 µM with K562. Also, the half-inhibitory concentration (IC50) in the test with HT-29 came to 8.04 µM; in the test on MDA-MB-231 [1] it was 8.34 µM; in the test with AGS it was 3.38 µM; with SH SY5Y, 6.6 µM; in the test with MCF-7 [2] it was 2.38 µM; in the test with MDA-MB-231 [3] it was 1.84 µM. In addition, the IC50 with MCF-7 [4] was determined as 2.21 µM.

On to `CC(C)CC(C(=O)O)N1C(=O)/C(=C/C=C/c2ccc([N+](=O)[O-])o2)SC1=S` (stereo not shown) [7b, 4-Methyl-2-((Z)-5-((E)-3-(5-nitrofuran-2-yl)allylidene)-4-oxo-2-thioxothiazolidin-3-yl)pentanoic acid], for which the IC50 in the test with HCT-116 was 7.98 µM; in the test on DLD-1 it was 7.67 µM; in the test with RPMI 8866 it was 16.8 µM; in the test on HCC-1954, 6.28 µM; with Jurkat it was 7.72 µM; in the test with K562, 18.5 µM. The IC50 in the test with HT-29 was 13.6 µM; in the test with MDA-MB-231 [1] it was 16.7 µM; with AGS it was 5.55 µM; in the test with SH SY5Y, 15.6 µM; with MCF-7 [2] it was 7.13 µM; in the test with MDA-MB-231 [3] it was 2.19 µM. Moreover, the IC50 in the test with MCF-7 [4] was 6.69 µM.

Turning to `O=C(O)CN1C(=O)/C(=C/C=C/c2ccc([N+](=O)[O-])o2)SC1=S` [1b, 2-((Z)-5-((E)-3-(5-Nitrofuran-2-yl)allylidene)-4-oxo-2-thioxothiazolidin-3-yl)acetic acid], the 50% inhibitory concentration (IC50) with HCT-116 was > 40 µM; in the test on DLD-1 it was 28.8 µM; in the test on RPMI 8866, > 40 µM; in the test with HCC-1954, 25.3 µM; in the test on Jurkat, 1.76 µM; with K562, > 40 µM. Moreover, the IC50 in the test on HT-29 is 22.3 µM; with MDA-MB-231 [1], > 40 µM; with AGS it was 36.2 µM; in the test on SH SY5Y, > 40 µM; with MCF-7 [2], > 40 µM; in the test with MDA-MB-231 [3] it was > 30 µM. Moreover, the 50% inhibitory concentration (IC50) in the test with MCF-7 [4] was > 10 µM.
